Measurements from patent publication US8034810B2, “Arylsulfonamido-substituted hydroxamic acid derivatives” (Novartis AG, priority 1999, dated 2011).
Structures can show the parent of a compound that is named as a salt.

What was measured:
[1] = molecular target: T1, MMP9 (Homo sapiens, UniProt P14780); assay: Assay of MMP9, fluorogenic peptide substrate; assay type: biochemical; conditions: activated MMP9 from THP1 cells, 0.5 nM; substrate 25 μM
T1 construct: endogenous in cells; host or cells: THP1 human monocytic leukemia cells, TPA-stimulated; enzyme purified from culture medium
Description: MMP9 is prepared form the culture medium of THP1 human monocytic leukemia cells treated with TPA. THP1 cells are maintained in a culture of DMEM/F-12 with 10% FCS and stimulated to produce pro-MMP9 with TPA (1 nM) in serum-free medium for 48 h. All purification procedures are carried out at 4° C. The 1 liters of culture medium is concentrated to 100 ml by Centricon (Amicon) and applied to a column (1×8 cm) of gelatin-sepharose (Pharmacia) equilibrated with 50 mM Tris-Cl (pH=8.0), 300 mM NaCl. The fraction containing pro-MMP-9 is eluted with 10% DMSO in 50 mM Tris-Cl (pH=8.0), 300 mM NaCl, then dialyzed against 50 mM Tris-Cl (pH 7.5), 150 mM NaCl. The fraction is concentrated by Centricon and subjected to column chromatography of Sephadex G200 (2×20 cm) equilibrated with 50 mM Tris-Cl (pH=7.5) containing 150 mM NaCl. The purified Pro-MMP9 is stored at −80° C. as a stock and the necessary amount of pro-form is used for activation. Pro-MMP9 is activated with 1 mM aminophenyl mercury acetate (APMA, ICN Pharmaceuticals) in 50 mM Tris-Cl (pH=7.5) containing 150 mM NaCl, 10 mM CaCl2 and 0.05% Brij-35 (MMP Assay Buffer) for 18 h at 37° C., and the APMA is removed by extensive dialysis against MMP Assay Buffer. The activated MMP9 is stored frozen at −80° C. until use.
The activated MMP-9 (82 kDa) is then used to screen compounds. A fluorogenic peptide, 2-N-methylaminobenzoic acid (Nma)-Gly-Pro-Gln-Gly-Leu-Ala-Gly-Gln-Lys-N^ε-(2,4-dinitrophenyl)(Dnp)-NH2 (Peptide Institute, Osaka, Japan) is used as the only substrate in all MMPs assay in this study at 25 μM. Stock solutions of the substrate are prepared in 100% DMSO at a concentration 1.0 mM. Assays are performed in MMP Assay Buffer. The reaction mixture is added in duplicate to appropriate wells of a 96 well microfluor plate and preincubated at 37° for 30 min. The reaction is started by the addition of 0.5 nM of activated MMP9. Stock solutions of each inhibitor are prepared by dissolving in 100% DMSO. Inhibitors are added into the assay mixture from the diluted solution with 100% DMSO prepared from the stock solutions. An equal volume of DMSO is added to controls. The final concentration of DMSO from inhibitor and substrate solutions is 5.0%. The increase of fluorescence is monitored at 460 nm with excitation at 355 nm. A time point on a linear part of the curve is chosen to determine the activity. The inhibition results are expressed as the inhibitor concentration that produce 50% inhibition (IC50) of the activity in the control reaction.

[2] = system: EGFP transfected HT1080 cells; assay: Metastasis model with EGFP transfected HT1080 cells, lung fluorescence in nude mice; assay type: in vivo; conditions: tumor cells i.v., p.o. 60 mg/kg twice a day, lungs on day 17
Description: EGFP transfected HT1080: Nude mice were injected in the tail vein a suspension of tumor cells [2×10^6 cells/0.1 ml of PBS (phosphate buffered saline)]. Animals were dosed with compounds p.o. at −1 hr and +5 hrs relative to the time of the cell injection at the first day (day 0). After that the animals were dosed twice a day, firstly at 9-10:30 a.m. and secondly at 5:30-7:00 p.m. Compounds were administered as a suspension in 1% carboxymethyl cellulose (Wako, Japan) at a dose of 60 mg/kg twice a day. The vehicle alone was administered to the control group. On day 17, the lungs were removed from mice after sacrificing the animals. The removed lung tissues were divided into pieces of approximately 2-3 mm in diameter and then ca. 100 mg of tissues were suspended in 0.2 ml PBS in the microcentrifuge tubes followed by gentle homogenization and centrifugation. […] The fluorescence intensity was determined by using fluorescence plate reader (Cytoflour II) at the excitation and emission wavelength of 485 and 530 nm, respectively. The obtained fluorescence was normalized per lung using the wet lung weight. In this test a decrease in the fluorescence of 74% compared to the vehicle alone was determined for the compound of Example 68.

[3] = system: B16-F10 melanoma cells; assay: B16-F10 melanoma experimental metastasis model, lung tumor nodules; assay type: in vivo, BDF1 mice; conditions: mice, tumor cells i.v.; p.o. 120 mg/kg/dosing; lungs on day 14
Description: The B16-F10 melanoma experimental metastasis model was studied following the method of Fidler. Cells were harvested by trypsinization and washed once with serum-containing medium and three times with cold PBS and then kept on ice. Mice were injected in the tail vein with a suspension of tumor cells (2×10^5 cells/0.1 ml of PBS). Animals were dosed with compounds p.o. at −1 hr, +5 hrs, 23 hrs and 29 hrs relative to the time of the cell injection at the first two days (day 0, 1). After that the animals were dosed once a day in the morning. Compounds were administered as a suspension in 1% carboxymethyl cellulose (Wako, Japan) at a dose of 120 mg/kg/dosing. Vehicle alone was administered to the control group. On day 14, the lung of the mice were removed after sacrificing the animals and the numbers of the tumor nodules were counted manually after fixing with Bouin's solution (2% picric acid in destilled water:10% formaldehyde neutral buffer solution:acetic acid=15:5:1). In this test a decrease in the number of tumor nodules of 47% compared to the vehicle alone was determined for the compound of Example 68.

T1 sequence (P14780 107-707 limits assumed): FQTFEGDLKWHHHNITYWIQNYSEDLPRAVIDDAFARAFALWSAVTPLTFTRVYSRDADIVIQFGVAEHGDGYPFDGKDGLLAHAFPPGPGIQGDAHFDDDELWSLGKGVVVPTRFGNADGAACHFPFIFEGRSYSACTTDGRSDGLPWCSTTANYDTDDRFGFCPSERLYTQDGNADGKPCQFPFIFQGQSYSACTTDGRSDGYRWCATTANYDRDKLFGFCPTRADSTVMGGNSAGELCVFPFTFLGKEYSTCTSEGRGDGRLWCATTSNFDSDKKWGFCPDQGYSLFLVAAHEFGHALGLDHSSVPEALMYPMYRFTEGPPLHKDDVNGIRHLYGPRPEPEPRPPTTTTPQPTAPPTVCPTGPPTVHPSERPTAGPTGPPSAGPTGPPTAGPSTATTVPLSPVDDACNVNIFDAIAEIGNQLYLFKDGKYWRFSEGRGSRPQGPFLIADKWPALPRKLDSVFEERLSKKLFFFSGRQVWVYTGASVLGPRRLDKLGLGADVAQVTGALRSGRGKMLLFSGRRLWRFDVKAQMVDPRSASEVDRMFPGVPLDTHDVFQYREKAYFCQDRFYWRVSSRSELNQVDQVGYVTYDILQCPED

Molecule	IC50 [1] [nM]	decrease in the fluorescence compared to the vehicle alone [2] [%]	decrease in the number of tumor nodules compared to the vehicle alone [3] [%]
O=C(CN(Cc1ccc(-n2cncn2)cc1)S(=O)(=O)c1ccc(OCc2ccoc2)cc1)NO [Example 82c]	7.4	–	–
C=CCCOc1ccc(S(=O)(=O)N(CC(=O)NO)Cc2ccc(-n3ccnc3)cc2)cc1 [Example 80, 2-[(4-But-3-enyloxy-benzenesulfonyl)-(4-imidazol-1-yl-benzyl)-amino]-N-hydroxy-acetamide-hydrochloride]	3.7	–	–
C=CCCOc1ccc(S(=O)(=O)N(CC(=O)NO)Cc2cccc(F)n2)cc1 [Example 83a, 2-([4-But-3-enyloxy-benzenesulfonyl]-(6-fluoro-pyridine-2-yl)methyl-amino)-N-hydroxyacetamide]	5.6	–	–
C=CCCOc1ccc(S(=O)(=O)N(CC(=O)NO)Cc2ccc(-n3cncn3)cc2)cc1 [Example 79, 2-[(4-but-3-enyloxy-benzenesulfonyl)-(4-[1,2,4]triazol-1-yl-benzyl)-amino]-N-hydroxy-acetamide-hydrochloride salt]	0.2	–	–
COc1ccc(CN(CC(=O)NO)S(=O)(=O)c2ccc(OCCCCl)cc2)cc1 [Example 68, 2-{[4-(3-chloro-propoxy)-benzenesulfonyl]-(4-methoxy-benzyl)amino}-N-hydroxy-acetamide]	1.2	74	47
C=CCCOc1ccc(S(=O)(=O)N(CC(=O)NO)Cc2ccc(N3CCCC3)cc2)cc1 [Example 84a, 2-[(4-But-3-enyloxy-benzenesulfonyl)-(4-(pyrrolidin-1-yl)-benzyl)-amino]-N-hydroxyacetamide-hydrochloride]	19.8	–	–
2-[(Cyclopropylmethoxy-benzenesulfonyl)-(4-[1,2,4]triazol-1-yl-benzyl)-amino]-N-hydroxyacetamide-hydrochloride salt [Example 82b]	10.6	–	–
O=C(CN(Cc1ccc(-n2cncn2)cc1)S(=O)(=O)c1ccc(OCCC2CC2)cc1)NO [Example 82a]	17	–	–
C=CCCOc1ccc(S(=O)(=O)N(CC(=O)NO)Cc2ccc(N3CCOCC3)cc2)cc1 [Example 81, 2-[(4-But-3-enyloxy-benzenesulfonyl)-(4-morpholin-4-yl-benzyl)-amino]-N-hydroxy-acetamide-hydrochloride]	6.3	–	–
